Test results published in US12077503B2, “Substituted cyclic amides and their use as herbicides” (FMC CORPORATION, priority 2015, dated 2024).

Experiments:
Format in all cases: in vivo
[1] = test system: barnyardgrass (Echinochloa crus-galli); assay: Test G Pre-Emergence Protocol; settings: Echinochloa crus-galli, pre-emergence, 312 h, evaluated after 13 days
Method in brief: (§1)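 Seeds were sown in standard soil and kept one day in a glasshouse (24/16° C day/night, 14 h light, 65% humidity), then sprayed with compound in acetone/water (50:50) containing 0.5% Tween 20 at 15.625, 62.5 or 250 g/ha. Damage was scored after 13 days (0 = none, 100 = total).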

[2] = test system: ivy-leaved morning glory (Ipomoea hederacea); assay: Test G Pre-Emergence Protocol; settings: Ipomoea, pre-emergence, 312 h, evaluated after 13 days
Method in brief: as §1

[3] = test system: velvetleaf (Abutilon theophrasti); assay: Test G Pre-Emergence Protocol; settings: Abutilon theophrasti, pre-emergence, 312 h, evaluated after 13 days
Method in brief: as §1

corn (Zea mays) [4] = assay: Test G Pre-Emergence Protocol; settings: Zea mays, pre-emergence, 312 h, evaluated after 13 days
Method in brief: as §1

[5] = test system: giant foxtail (Setaria faberi); assay: Test G Pre-Emergence Protocol; settings: Setaria faberi, pre-emergence, 312 h, evaluated after 13 days
Method in brief: as §1

[6] = test system: redroot pigweed (Amaranthus retroflexus); assay: Test G Pre-Emergence Protocol; settings: Amaranthus retroflexus, pre-emergence, 312 h, evaluated after 13 days
Method in brief: as §1

[7] = test system: barnyardgrass (Echinochloa crus-galli); assay: Test G Post-Emergence Protocol; settings: Echinochloa crus-galli, post-emergence, 312 h
Method in brief: (§2)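 Scores run 0 (no damage) to 100 (total damage) and were taken 13 days after spraying. Plants had been raised in pots for 8 days under glasshouse control (24/16 °C, 14 h photoperiod, 65% humidity) and then treated at 15.625, 62.5 or 250 g/ha.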

[8] = test system: ivy-leaved morning glory (Ipomoea hederacea); assay: Test G Post-Emergence Protocol; settings: Ipomoea, post-emergence, 312 h
Method in brief: as §2

[9] = test system: velvetleaf (Abutilon theophrasti); assay: Test G Post-Emergence Protocol; settings: Abutilon theophrasti, post-emergence, 312 h
Method in brief: as §2

corn (Zea mays) [10] = assay: Test G Post-Emergence Protocol; settings: Zea mays, post-emergence, 312 h
Method in brief: as §2

[11] = test system: giant foxtail (Setaria faberi); assay: Test G Post-Emergence Protocol; settings: Setaria faberi, post-emergence, 312 h
Method in brief: as §2

[12] = test system: redroot pigweed (Amaranthus retroflexus); assay: Test G Post-Emergence Protocol; settings: Amaranthus retroflexus, post-emergence, 312 h
Method in brief: as §2

CN1C[C@@H](c2ccc(C(F)(F)F)cc2)[C@H](C(=O)Nc2c[nH]nc2Cl)C1=O (racemic) [Compound 1633]
0%: pest or weed control at 15.625 g/ha ([1]; 15.625 g ai/ha, read-out: Barnyard grass damage rating (100=total damage to plant; 0=no damage to plant)) | pest or weed control at 62.5 g/ha ([1]; 62.5 g ai/ha, 100=total damage to plant, 0=no damage to plant, read-out: plant damage rating, Barnyardgrass) | pest or weed control at 250 g/ha ([1]; 250 g ai/ha, read-out: Barnyardgrass damage rating (100=total damage to plant; 0=no damage to plant)) | pest or weed control at 15.625 g/ha ([2]; 15.625 g ai/ha, read-out: Morning-glory, Ivy-leaved damage rating (100=total damage to plant; 0=no damage to plant)) | pest or weed control at 62.5 g/ha ([2]; 62.5 g ai/ha, 100=total damage to plant, 0=no damage to plant, read-out: plant damage rating, Morningglory, Ivy-leaved) | pest or weed control at 250 g/ha ([2]; 250 g ai/ha, read-out: Morningglory, Ivy-leaved damage rating (100=total damage to plant; 0=no damage to plant)) | pest or weed control at 15.625 g/ha ([3]; 15.625 g ai/ha, read-out: Velvetleaf damage rating (100=total damage to plant; 0=no damage to plant)) | pest or weed control at 62.5 g/ha ([3]; 62.5 g ai/ha, 100=total damage to plant, 0=no damage to plant, read-out: plant damage rating, Velvetleaf) | pest or weed control at 250 g/ha ([3]; 250 g ai/ha, read-out: Velvetleaf damage rating (100=total damage to plant; 0=no damage to plant)) | plant injury at 15.625 g/ha (corn (Zea mays) [4]; 15.625 g ai/ha, read-out: Corn damage rating (100=total damage to plant; 0=no damage to plant)) | plant injury at 62.5 g/ha (corn (Zea mays) [4]; 62.5 g ai/ha, 100=total damage to plant, 0=no damage to plant, read-out: plant damage rating, Corn) | plant injury at 250 g/ha (corn (Zea mays) [4]; 250 g ai/ha, read-out: Corn damage rating (100=total damage to plant; 0=no damage to plant)) | pest or weed control at 15.625 g/ha ([5]; 15.625 g ai/ha, read-out: Foxtail, Giant damage rating (100=total damage to plant; 0=no damage to plant)) | pest or weed control at 62.5 g/ha ([5]; 62.5 g ai/ha, 100=total damage to plant, 0=no damage to plant, read-out: plant damage rating, Foxtail, Giant) | pest or weed control at 250 g/ha ([5]; 250 g ai/ha, read-out: Foxtail, Giant damage rating (100=total damage to plant; 0=no damage to plant)) | pest or weed control at 15.625 g/ha ([6]; 15.625 g ai/ha, read-out: Pigweed, Redroot damage rating (100=total damage to plant; 0=no damage to plant)) | pest or weed control at 62.5 g/ha ([6]; 62.5 g ai/ha, 100=total damage to plant, 0=no damage to plant, read-out: plant damage rating, Pigweed, Redroot) | pest or weed control at 250 g/ha ([6]; 250 g ai/ha, read-out: Pigweed, Redroot damage rating (100=total damage to plant; 0=no damage to plant)) | pest or weed control at 15.625 g/ha ([7]; 15.625 g ai/ha, evaluated after 13 days (100=total damage to plant; 0=no damage to plant), read-out: Barnyardgrass damage rating) | pest or weed control at 62.5 g/ha ([7]; 62.5 g ai/ha, evaluated after 13 days, read-out: Barnyardgrass damage rating (100=total damage to plant; 0=no damage to plant)) | pest or weed control at 250 g/ha ([7]; 250 g ai/ha, evaluated after 13 days, read-out: damage to plant, Barnyardgrass (100=total damage to plant; 0=no damage to plant)) | pest or weed control at 15.625 g/ha ([8]; 15.625 g ai/ha, evaluated after 13 days (100=total damage to plant; 0=no damage to plant), read-out: Morningglory, Ivy-leaved damage rating) | pest or weed control at 62.5 g/ha ([8]; 62.5 g ai/ha, evaluated after 13 days, read-out: Morningglory, Ivy-leaved damage rating (100=total damage to plant; 0=no damage to plant)) | pest or weed control at 250 g/ha ([8]; 250 g ai/ha, evaluated after 13 days, read-out: damage to plant, Morningglory, Ivy-leaved (100=total damage to plant; 0=no damage to plant)) | pest or weed control at 15.625 g/ha ([9]; 15.625 g ai/ha, evaluated after 13 days (100=total damage to plant; 0=no damage to plant), read-out: Velvetleaf damage rating) | pest or weed control at 62.5 g/ha ([9]; 62.5 g ai/ha, evaluated after 13 days, read-out: Velvetleaf damage rating (100=total damage to plant; 0=no damage to plant)) | pest or weed control at 250 g/ha ([9]; 250 g ai/ha, evaluated after 13 days, read-out: damage to plant, Velvetleaf (100=total damage to plant; 0=no damage to plant)) | plant injury at 15.625 g/ha (corn (Zea mays) [10]; 15.625 g ai/ha, evaluated after 13 days (100=total damage to plant; 0=no damage to plant), read-out: Corn damage rating) | plant injury at 62.5 g/ha (corn (Zea mays) [10]; 62.5 g ai/ha, evaluated after 13 days, read-out: Corn damage rating (100=total damage to plant; 0=no damage to plant)) | plant injury at 250 g/ha (corn (Zea mays) [10]; 250 g ai/ha, evaluated after 13 days, read-out: damage to plant, Corn (100=total damage to plant; 0=no damage to plant)) | pest or weed control at 15.625 g/ha ([11]; 15.625 g ai/ha, evaluated after 13 days (100=total damage to plant; 0=no damage to plant), read-out: Foxtail, Giant damage rating) | pest or weed control at 62.5 g/ha ([11]; 62.5 g ai/ha, evaluated after 13 days, read-out: Foxtail, Giant damage rating (100=total damage to plant; 0=no damage to plant)) | pest or weed control at 250 g/ha ([11]; 250 g ai/ha, evaluated after 13 days, read-out: damage to plant, Foxtail, Giant (100=total damage to plant; 0=no damage to plant)) | pest or weed control at 15.625 g/ha ([12]; 15.625 g ai/ha, evaluated after 13 days (100=total damage to plant; 0=no damage to plant), read-out: Pigweed, Redroot damage rating) | pest or weed control at 62.5 g/ha ([12]; 62.5 g ai/ha, evaluated after 13 days, read-out: Pigweed, Redroot damage rating (100=total damage to plant; 0=no damage to plant)) | pest or weed control at 250 g/ha ([12]; 250 g ai/ha, evaluated after 13 days, read-out: damage to plant, Pigweed, Redroot (100=total damage to plant; 0=no damage to plant))
